This is an account of results in patent publication US20030232820A1, “Method for synthesizing oxazinones” (priority 2001, published 2003).

For orientation: melting point means the temperature of the solid-liquid transition.

Each structure is given as a SMILES string.

The subject of data set [1] is glutamate-aspartate transaminase. As to conditions: in words, prior art; cited from earlier work.
The next data set has as its system Micrococcus luteus. Kind of data set: Agar plate filter disc test for antibacterial activity. As to conditions: for Zone size: agar plate seeded with Micrococcus luteus, 12 hours at 30° C.; for antibacterial activity against Micrococcus luteus: agar plates, in words.
Another data set relates to tuberculosis bacilli. As to conditions: in words, prior art; cited from earlier work.

For `NC1CCONC1=O` (racemic) [DL-cyclocanaline, 4-amino-tetrahydro-1,2-oxazin-3-one], in data set [1], the “inhibition of glutamate-aspartate transaminase” value is “known to inhibit”. Moreover, the Zone size in the data set with Micrococcus luteus (Weight 400 micrograms on disc) turned out to be 48 mm; in the data set on Micrococcus luteus (Weight 600 micrograms on disc) it was 58 mm. For the same compound, in the data set on Micrococcus luteus, the “antibacterial activity against Micrococcus luteus” value is listed as “exhibited activity”. In addition, in the data set on tuberculosis bacilli, the “activity against tuberculosis bacilli” value is “exhibits activity”.
For `C[C@H](C(=O)O)N1OCCCC1=O` [Compound R, 2R-(3-Oxo-[1,2]Oxazinan-2-yl)-Propionic Acid], the Zone size in the data set with Micrococcus luteus (Weight 400 micrograms on disc) is 23 mm. Further, in the data set on Micrococcus luteus, the “antibacterial activity against Micrococcus luteus” value was “exhibited activity”.
In the case of `CC(C(=O)O)N1OCCC(NC(=O)Cc2ccccc2)C1=O` (stereo not drawn) [UA, 2-(α-Carboxylethyl)-4-phenylacetylamino-1,2-oxazinan-3-one], the melting point lay within 189 to 190 °C.
In turn, `CC1=C(C(=O)O)N2C(=O)[C@@H](NC(=O)Cc3ccccc3)[C@H]2SC1` [desacetoxycephalosporin G] displayed a Zone size with Micrococcus luteus (Weight 10 micrograms on disc) of 39 mm.
